Values joined by “and” are separate entries in the source; they are usually repeats but may differ in a detail not shown here. Identical values can stand only once.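 Grown in 96-well plates, cells were treated for 48 hours with each compound at five concentrations. Insufficient inhibition: endpoint recorded as highest concentration tested. The concentration for 50% growth inhibition is given as GI50. TGI is the concentration that stops growth completely.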
Assays:
Experiment in all cases: DTP human tumour cell line panel, 48 h
[1] = test system: 786-0 renal
[2] = test system: A498 renal
[3] = test system: A549 NSCLC
[4] = test system: ACHN renal
[5] = test system: BT-549 breast
[6] = test system: CAKI-1 renal
[7] = test system: CCRF-CEM leukemia
[8] = test system: COLO 205 colon
[9] = test system: DU-145 prostate
[10] = test system: EKVX NSCLC
[11] = test system: HCC-2998 colon
[12] = test system: HCT-116 colon
[13] = test system: HCT-15 colon
[14] = test system: HL-60(TB) leukemia
[15] = test system: HOP-62 NSCLC
[16] = test system: HOP-92 NSCLC
[17] = test system: HS 578T breast
[18] = test system: HT29 colon
[19] = test system: IGROV1 ovarian
[20] = test system: K-562 leukemia
[21] = test system: KM12 colon
[22] = test system: LOX IMVI melanoma
[23] = test system: M14 melanoma
[24] = test system: MALME-3M melanoma
[25] = test system: MCF7 breast
[26] = test system: MDA-MB-231 breast
[27] = test system: MDA-MB-435
[28] = test system: MOLT-4 leukemia
[29] = test system: NCI-H226 lung
[30] = test system: NCI-H23 lung
[31] = test system: NCI-H460 lung
[32] = test system: NCI-H522 lung
[33] = test system: NCI/ADR-RES ovarian
[34] = test system: OVCAR-3 ovarian
[35] = test system: OVCAR-4 ovarian
[36] = test system: OVCAR-5 ovarian
[37] = test system: OVCAR-8 ovarian
[38] = test system: PC-3 prostate
[39] = test system: RPMI-8226 leukemia
[40] = test system: RXF 393 renal
[41] = test system: SF-268 CNS
[42] = test system: SF-295 CNS
[43] = test system: SF-539 CNS
[44] = test system: SK-MEL-2 melanoma
[45] = test system: SK-MEL-28 melanoma
[46] = test system: SK-MEL-5 melanoma
[47] = test system: SK-OV-3 ovarian
[48] = test system: SN12C renal
[49] = test system: SNB-19 CNS
[50] = test system: SNB-75 CNS
[51] = test system: SR leukemia
[52] = test system: SW-620 colon
[53] = test system: T-47D breast
[54] = test system: TK-10 renal
[55] = test system: U251 CNS
[56] = test system: UACC-257 melanoma
[57] = test system: UACC-62 melanoma
[58] = test system: UO-31 renal

For `COc1cc(C2C3=C(COC3=O)N(CCO)c3cc4c(cc32)OCO4)cc(OC)c1OC` (stereo not given), the GI50 [1] was 474 nM and 754 nM, the TGI [1] was 12500 nM and > 16800 nM and the GI50 [2] was 257 nM and 407 nM. The TGI [2] was 1070 nM and 8820 nM, the GI50 [3] was 595 nM and 1060 nM and the TGI [3] was 12500 nM and > 16800 nM. For the same molecule, the GI50 [4] was 1090 nM and 925 nM, the TGI [4] was 12500 nM and > 16800 nM and the GI50 [5] was 4330 nM and 834 nM. For the same molecule, the TGI [5] was 12500 nM and 9330 nM, the GI50 [6] was 8660 nM and 2390 nM and the TGI [6] was 12500 nM and > 16800 nM. For the same molecule, the GI50 [7] was 473 nM and 802 nM, the TGI [7] was 12500 nM and > 16800 nM and the GI50 [8] was 360 nM and 332 nM. The TGI [8] was 1020 nM and 765 nM, the GI50 [9] was 342 nM and 550 nM and the TGI [9] was 1020 nM and 2590 nM. The GI50 [10] was 6650 nM and 1030 nM, the TGI [10] was 12500 nM and > 16800 nM and the GI50 [11] was 697 nM and 702 nM. The TGI [11] was 6210 nM and 5110 nM, the GI50 [12] was 468 nM and 524 nM and the TGI [12] was 12500 nM and 13800 nM. The GI50 [13] was 1520 nM and 1130 nM, the TGI [13] was 12500 nM and > 16800 nM and the GI50 [14] was 343 nM and 629 nM. The GI50 [15] was 779 nM and 738 nM, the TGI [15] was 12500 nM and > 16800 nM and the GI50 [16] was 6020 nM and 5990 nM. The TGI [16] was 12500 nM and > 16800 nM, the GI50 [17] was 276 nM and 268 nM and the GI50 [18] was 403 nM and 585 nM. For the same molecule, the TGI [18] was 1940 nM and 2030 nM, the GI50 [19] was 328 nM and 625 nM and the TGI [19] was 1970 nM and 6300 nM. For the same molecule, the GI50 [20] was 406 nM and 489 nM, the TGI [20] was 12500 nM and > 16800 nM and the GI50 [21] was 334 nM and 462 nM. For the same molecule, the TGI [21] was 2310 nM and 8860 nM, the GI50 [22] was 976 nM and the TGI [22] was greater than 16800 nM. The GI50 [23] was 311 nM and 363 nM, the TGI [23] was 926 nM and 1380 nM and the GI50 [24] was 532 nM and 745 nM. The TGI [24] was 12500 nM and > 16800 nM, the GI50 [25] was 409 nM and 426 nM and the TGI [25] was 12500 nM and > 16800 nM. For the same molecule, the GI50 [26] was 971 nM and 1600 nM, the TGI [26] was 12500 nM and > 16800 nM and the GI50 [27] was 175 nM and 151 nM. For the same molecule, the TGI [27] was 592 nM and 616 nM, the GI50 [28] was 675 nM and 4390 nM and the TGI [28] was 12500 nM and > 16800 nM. For the same molecule, the GI50 [29] was > 12500 nM and 2940 nM, the TGI [29] was greater than 16800 nM and the GI50 [30] was 412 nM and 574 nM. For the same molecule, the TGI [30] was 2460 nM and > 16800 nM, the GI50 [31] was 438 nM and 542 nM and the TGI [31] was 12500 nM and 3400 nM. For the same molecule, the GI50 [32] was 173 nM and 260 nM, the TGI [32] was 666 nM and 1250 nM and the GI50 [33] was 3920 nM and 14800 nM. The TGI [33] was 12500 nM and > 16800 nM, the GI50 [34] was 244 nM and 319 nM and the TGI [34] was 542 nM and 668 nM. For the same molecule, the GI50 [35] was 706 nM and 987 nM, the TGI [35] was 12500 nM and > 16800 nM and the GI50 [36] was 1660 nM and 500 nM. For the same molecule, the TGI [36] was 12500 nM and > 16800 nM, the GI50 [37] was 427 nM and 770 nM and the TGI [37] was 12500 nM and > 16800 nM. The GI50 [38] was 611 nM and 612 nM, the TGI [38] was 12500 nM and > 16800 nM and the GI50 [39] was 521 nM and 715 nM. The TGI [39] was 12500 nM and > 16800 nM, the GI50 [40] was 176 nM and 337 nM and the TGI [40] was 501 nM and 931 nM. The GI50 [41] was 321 nM and 872 nM, the TGI [41] was 2050 nM and > 16800 nM and the GI50 [42] was 537 nM and 235 nM. For the same molecule, the GI50 [43] was 323 nM and 434 nM, the TGI [43] was 947 nM and 3010 nM and the GI50 [44] was 298 nM and 979 nM. For the same molecule, the GI50 [45] was 706 nM and 1080 nM, the TGI [45] was 12500 nM and > 16800 nM and the GI50 [46] was 359 nM and 561 nM. For the same molecule, the TGI [46] was 2460 nM and 4350 nM, the GI50 [47] was 456 nM and 491 nM and the TGI [47] was 7710 nM and > 16800 nM. For the same molecule, the GI50 [48] was 1250 nM and 1130 nM, the TGI [48] was 12500 nM and > 16800 nM and the GI50 [49] was 408 nM and 720 nM. For the same molecule, the TGI [49] was 6650 nM and > 16800 nM, the GI50 [50] was 514 nM and 251 nM and the TGI [50] was 12500 nM and > 16800 nM. For the same molecule, the GI50 [51] was 323 nM, the TGI [51] was greater than 16800 nM and the GI50 [52] was 439 nM and 697 nM. The TGI [52] was 12500 nM and > 16800 nM, the GI50 [53] was 474 nM and the TGI [53] was 12500 nM. For the same molecule, the GI50 [54] was 1240 nM and 2730 nM, the TGI [54] was 12500 nM and > 16800 nM and the GI50 [55] was 500 nM and 631 nM. For the same molecule, the TGI [55] was 12500 nM and > 16800 nM, the TGI [56] was 12500 nM and > 16800 nM and the GI50 [57] was 1000 nM and 565 nM. The TGI [57] was 12500 nM and > 16800 nM and the TGI [58] was 12500 nM and > 16800 nM.

Reference: PubChem BioAssay (NCI)
